Source: US4923986A, “Derivatives of physiologically active substance K-252” (Kyowa Hakko Kogyo Co., Ltd., priority 1988, dated 1990)
≈ marks a conversion by molar mass, not a printed value.

tested on: COLO320DM cells; test: COLO320DM cell growth inhibition test; format: cell-based; conditions: Homo sapiens, COLO 320DM; COLO320DM cells, cells counted with a microcell counter; read-out: cell growth inhibitory activity IC50, COLO320DM
Procedure: (§1) After incubation at 37° C. overnight in CO2 -incubator, 0.05 ml each of a test sample appropriately diluted with the culture medium is added to each well. In the case of contact for 72 hours, the cells are further cultured in CO2 -incubator, and then the culture supernatant is removed and the wells are washed once with PBS(-). Thereafter, 0.1 ml of fresh medium is added to each well, followed by culturing at 37° C. for 72 hours in CO2 -incubator. After the culture supernatant is removed, 0.1 ml of the culture medium containing 0.02% Neutral Red is added to each well, followed by culturing at 37° C. for one hour in CO2 -incubator, whereby the cells are stained. Then, the culture supernatant is removed and the cells are washed once with physiological saline. The pigment is extracted with 0.001N HCl/30% ethanol and absorption is measured at 550 nm with a microplate reader.
(4) COLO320DM cell growth inhibition test:
Thereafter, the test is carried out in the same manner as in (1) except that the cells are counted with a microcell counter.

Compound	IC50
CC12OC(CC1(O)CN1CCSCC1)n1c3ccccc3c3c4c(c5c6ccccc6n2c5c31)CNC4=O (centres unmarked) [Compound 39]	0.38 µg/mL (≈ 0.724 µM)
CC12OC(CC1(O)CN1CCNCC1)n1c3ccccc3c3c4c(c5c6ccccc6n2c5c31)CNC4=O (centres unmarked) [Compound 40]	> 1 µg/mL
CC12OC(CC1(O)CN1CCCCC1)n1c3ccccc3c3c4c(c5c6ccccc6n2c5c31)CNC4=O (centres unmarked) [Compound 41]	0.07 µg/mL (≈ 0.138 µM)
CC12OC(CC1(O)CNCC(O)CO)n1c3ccccc3c3c4c(c5c6ccccc6n2c5c31)CNC4=O (centres unmarked) [Compound 43]	> 1 µg/mL
CC12OC(CC1(O)C=NO)n1c3ccccc3c3c4c(c5c6ccccc6n2c5c31)CNC4=O (centres unmarked) [Compound 50]	0.17 µg/mL (≈ 0.376 µM)
C[C@]12O[C@H](C[C@]1(O)C=NNC1=NCCN1)n1c3ccccc3c3c4c(c5c6ccccc6n2c5c31)CNC4=O [Compound 51]	1 µg/mL (≈ 1.92 µM)
CC12OC(CC1(O)C=NNC(=N)N)n1c3ccccc3c3c4c(c5c6ccccc6n2c5c31)CNC4=O (centres unmarked) [Compound 52]	> 1 µg/mL
CC1=NCC2(CC3OC2(C)n2c4ccccc4c4c5c(c6c7ccccc7n3c6c42)C(=O)NC5)O1 (centres unmarked) [Compound 56]	1 µg/mL (≈ 2.16 µM)
CN1CC2(CC3OC2(C)n2c4ccccc4c4c5c(c6c7ccccc7n3c6c42)C(=O)NC5)OC1=O (centres unmarked) [Compound 59]	0.39 µg/mL (≈ 0.815 µM)

tested on: MCF 7 cells; test: MCF 7 cell growth inhibition test; format: cell-based; conditions: Homo sapiens, MCF7; MCF-7 cells, contact for 72 hours; read-out: cell growth inhibitory activity IC50, MCF-7
Procedure: (§2) Compound (I) was examined for C-kinase inhibitory activity and cell growth inhibitory activity by the following method.
(1) MCF 7 cell growth inhibition test:
as §1, with “MCF 7 cells (4.5×10^4 cells/ml) prepared in RPMI 1640 medium containing 10% fetal calf serum, 10 μg/ml insulin and 10^-8 M estradiol are put into wells of a 96-well microtiter plate in the amount of 0.1 ml per each well. After incubation” for “After incubation”, “microplate reader. By comparing the absorption of intact cells with those of the cells treated with a test compound in known concentrations, the concentration of the test compound at which growth of the cells is inhibited 50% is calculated as IC50.” for “microplate reader.”

Compound	IC50
CC12OC(CC1(O)CN1CCSCC1)n1c3ccccc3c3c4c(c5c6ccccc6n2c5c31)CNC4=O (centres unmarked) [Compound 39]	> 1 µg/mL
CC12OC(CC1(O)CN1CCNCC1)n1c3ccccc3c3c4c(c5c6ccccc6n2c5c31)CNC4=O (centres unmarked) [Compound 40]	> 1 µg/mL
CC12OC(CC1(O)CN1CCCCC1)n1c3ccccc3c3c4c(c5c6ccccc6n2c5c31)CNC4=O (centres unmarked) [Compound 41]	> 1 µg/mL
CC12OC(CC1(O)CNCC(O)CO)n1c3ccccc3c3c4c(c5c6ccccc6n2c5c31)CNC4=O (centres unmarked) [Compound 43]	0.52 µg/mL (≈ 1.01 µM)
C[C@]12O[C@H](C[C@]1(O)C=NNC1=NCCN1)n1c3ccccc3c3c4c(c5c6ccccc6n2c5c31)CNC4=O [Compound 51]	0.5 µg/mL (≈ 0.962 µM)
CC12OC(CC1(O)C=NNC(=N)N)n1c3ccccc3c3c4c(c5c6ccccc6n2c5c31)CNC4=O (centres unmarked) [Compound 52]	0.4 µg/mL (≈ 0.81 µM)
CC1=NCC2(CC3OC2(C)n2c4ccccc4c4c5c(c6c7ccccc7n3c6c42)C(=O)NC5)O1 (centres unmarked) [Compound 56]	0.4 µg/mL (≈ 0.865 µM)
CN1CC2(CC3OC2(C)n2c4ccccc4c4c5c(c6c7ccccc7n3c6c42)C(=O)NC5)OC1=O (centres unmarked) [Compound 59]	1 µg/mL (≈ 2.09 µM)

tested on: HeLaS3 cells; test: HeLaS3 cell growth inhibition test; format: cell-based; conditions: Homo sapiens, HeLa S3; HeLaS3 cells, contact for 72 hours; read-out: cell growth inhibitory activity IC50, HeLaS3
Procedure: as §2
as §1, with “MCF 7 cells (4.5×10^4 cells/ml) prepared in RPMI 1640 medium containing 10% fetal calf serum, 10 μg/ml insulin and 10^-8 M estradiol are put into wells of a 96-well microtiter plate in the amount of 0.1 ml per each well. After incubation” for “After incubation”, “microplate reader. By comparing the absorption of intact cells with those of the cells treated with a test compound in known concentrations, the concentration of the test compound at which growth of the cells is inhibited 50% is calculated as IC50.” for “microplate reader.”
(3) HeLaS3 cell growth inhibition test:
HeLaS3 cells (3×10^4 cells/ml) prepared in MEM medium containing 10% fetal calf serum and 2 mM glutamine are put into wells of a 96-well microtiter plate in the amount of 0.1 ml per each well.
Thereafter, the test is carried out in the same manner as in (1).

Compound	IC50
CC12OC(CC1(O)CN1CCSCC1)n1c3ccccc3c3c4c(c5c6ccccc6n2c5c31)CNC4=O (centres unmarked) [Compound 39]	0.14 µg/mL (≈ 0.267 µM)
CC12OC(CC1(O)CN1CCNCC1)n1c3ccccc3c3c4c(c5c6ccccc6n2c5c31)CNC4=O (centres unmarked) [Compound 40]	0.38 µg/mL (≈ 0.749 µM)
CC12OC(CC1(O)CN1CCCCC1)n1c3ccccc3c3c4c(c5c6ccccc6n2c5c31)CNC4=O (centres unmarked) [Compound 41]	0.06 µg/mL (≈ 0.118 µM)
CC12OC(CC1(O)CNCC(O)CO)n1c3ccccc3c3c4c(c5c6ccccc6n2c5c31)CNC4=O (centres unmarked) [Compound 43]	0.19 µg/mL (≈ 0.371 µM)
CC12OC(CC1(O)C=NO)n1c3ccccc3c3c4c(c5c6ccccc6n2c5c31)CNC4=O (centres unmarked) [Compound 50]	0.22 µg/mL (≈ 0.486 µM)
C[C@]12O[C@H](C[C@]1(O)C=NNC1=NCCN1)n1c3ccccc3c3c4c(c5c6ccccc6n2c5c31)CNC4=O [Compound 51]	0.23 µg/mL (≈ 0.443 µM)
CC12OC(CC1(O)C=NNC(=N)N)n1c3ccccc3c3c4c(c5c6ccccc6n2c5c31)CNC4=O (centres unmarked) [Compound 52]	0.46 µg/mL (≈ 0.932 µM)
CC1=NCC2(CC3OC2(C)n2c4ccccc4c4c5c(c6c7ccccc7n3c6c42)C(=O)NC5)O1 (centres unmarked) [Compound 56]	0.07 µg/mL (≈ 0.151 µM)
CN1CC2(CC3OC2(C)n2c4ccccc4c4c5c(c6c7ccccc7n3c6c42)C(=O)NC5)OC1=O (centres unmarked) [Compound 59]	0.17 µg/mL (≈ 0.355 µM)

target: C-kinase (protein kinase C); test: C-Kinase inhibitory activity test; format: biochemical; conditions: enzyme activity inhibited 50%

Compound	C-Kinase inhibitory activity IC50
CC12OC(CC1(O)CNCC(O)CO)n1c3ccccc3c3c4c(c5c6ccccc6n2c5c31)CNC4=O (centres unmarked) [Compound 43]	0.02 µg/mL
CC12OC(CC1(O)C=NO)n1c3ccccc3c3c4c(c5c6ccccc6n2c5c31)CNC4=O (centres unmarked) [Compound 50]	0.013 µg/mL
C[C@]12O[C@H](C[C@]1(O)C=NNC1=NCCN1)n1c3ccccc3c3c4c(c5c6ccccc6n2c5c31)CNC4=O [Compound 51]	0.031 µg/mL
CC12OC(CC1(O)C=NNC(=N)N)n1c3ccccc3c3c4c(c5c6ccccc6n2c5c31)CNC4=O (centres unmarked) [Compound 52]	0.021 µg/mL
CC1=NCC2(CC3OC2(C)n2c4ccccc4c4c5c(c6c7ccccc7n3c6c42)C(=O)NC5)O1 (centres unmarked) [Compound 56]	0.006 µg/mL
CN1CC2(CC3OC2(C)n2c4ccccc4c4c5c(c6c7ccccc7n3c6c42)C(=O)NC5)OC1=O (centres unmarked) [Compound 59]	0.046 µg/mL
